From ChEMBL document CHEMBL1201862, “PubChem BioAssay data set” (2004)
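Five compound concentrations were applied to cells in 96-well plates for 48 hours; endpoints were derived by simple linear interpolation of the resulting dose-response curve. Abbreviation: GI50, concentration required for 50% inhibition of growth.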 The source made the active and inactive calls. Rule as the data show it: active = GI50 up to about 1.1 µM and inactive = higher.

Key:
Test in all cases: NCI anticancer screen, dose series, 48 h
A549 = test system: A549
CAKI-1 = test system: CAKI-1
HOP-62 = test system: HOP-62
IGROV-1 = test system: IGROV-1
M14 = test system: M14
Malme-3M = test system: Malme-3M
NCI-H23 = test system: NCI-H23
NCI-H460 = test system: NCI-H460
NCI-H522 = test system: NCI-H522
SF-295 = test system: SF-295
SN12C = test system: SN12C
SNB-19 = test system: SNB-19
SNB-75 = test system: SNB-75
SW-620 = test system: SW-620
HCC 2998 = test system: HCC 2998
HL-60 = test system: HL-60

Measured: GI50

COc1ccc(C(=O)Nc2ccccc2)cc1[N+](=O)[O-]
inactive: A549 > 100 µM | CAKI-1 > 100 µM | HOP-62 > 100 µM | IGROV-1 > 100 µM | M14 > 100 µM | Malme-3M > 100 µM | NCI-H23 > 100 µM | NCI-H460 > 100 µM | NCI-H522 87.9 µM | SF-295 > 100 µM | SN12C > 100 µM | SNB-19 > 100 µM | SNB-75 59.7 µM | SW-620 > 100 µM

Cc1cc(C)nc(NS(=O)(=O)c2ccc(NC(=O)c3cccn4c(=O)c5ccccc5nc34)cc2)n1
inactive: A549 > 100 µM | HCC 2998 > 100 µM | HL-60 21.5 µM | HOP-62 > 100 µM | IGROV-1 > 100 µM | M14 50.7 µM | NCI-H23 35.3 µM | NCI-H460 41.5 µM | NCI-H522 21.5 µM | SF-295 > 100 µM | SN12C 53.2 µM | SNB-19 62.5 µM | SNB-75 32.7 µM | SW-620 34.9 µM

O=C(c1cccc2ccccc12)N1CCC(C2CCN(C(=O)c3cccc4ccccc34)CC2)CC1
inactive: A549 > 100 µM | CAKI-1 > 100 µM | HL-60 65.5 µM | HOP-62 > 100 µM | IGROV-1 > 100 µM | M14 > 100 µM | Malme-3M > 100 µM | NCI-H23 > 100 µM | NCI-H460 > 100 µM | NCI-H522 > 100 µM | SF-295 > 100 µM | SN12C > 100 µM | SNB-75 23.8 µM | SW-620 > 100 µM

CC(NS(=O)(=O)c1ccc([N+](=O)[O-])cc1)C(=O)O (configuration not stated)
inactive: A549 > 100 µM | CAKI-1 > 100 µM | HCC 2998 > 100 µM | HL-60 > 100 µM | IGROV-1 > 100 µM | M14 > 100 µM | Malme-3M > 100 µM | NCI-H23 > 100 µM | NCI-H460 > 100 µM | NCI-H522 > 100 µM | SF-295 > 100 µM | SN12C > 100 µM | SNB-19 > 100 µM | SNB-75 80.7 µM | SW-620 > 100 µM

CN(C)C(=S)/N=c1\ss/c(=N\C(=S)N(C)C)n1Cc1ccco1
inactive: A549 > 100 µM | CAKI-1 > 100 µM | HCC 2998 > 100 µM | HL-60 > 100 µM | HOP-62 > 100 µM | IGROV-1 > 100 µM | M14 > 100 µM | Malme-3M > 100 µM | NCI-H460 > 100 µM | NCI-H522 > 100 µM | SN12C > 100 µM | SNB-19 > 100 µM | SNB-75 > 100 µM | SW-620 > 100 µM

N#CSCc1nc2ccc(Cl)cc2c(-c2ccccc2)[n+]1[O-]
inactive: A549 33.8 µM | CAKI-1 25.8 µM | HCC 2998 15.6 µM | HL-60 21.5 µM | HOP-62 > 100 µM | IGROV-1 > 10 µM | M14 21.9 µM | Malme-3M 24.6 µM | NCI-H460 40.3 µM | SF-295 35.2 µM | SN12C 20 µM | SNB-19 41.6 µM | SNB-75 32.7 µM | SW-620 16.6 µM

O=C(CC1(O)C(=O)Nc2ccccc21)c1ccncc1 (configuration not stated)
inactive: A549 > 100 µM | CAKI-1 > 100 µM | HCC 2998 > 100 µM | HL-60 > 100 µM | IGROV-1 > 100 µM | M14 > 100 µM | NCI-H23 > 100 µM | NCI-H460 > 100 µM | NCI-H522 > 100 µM | SF-295 > 100 µM | SN12C > 100 µM | SNB-19 > 100 µM | SNB-75 > 100 µM | SW-620 > 100 µM

COC(=O)CC(=O)OC
inactive: A549 > 100 µM | CAKI-1 > 100 µM | HCC 2998 > 100 µM | HL-60 > 100 µM | HOP-62 > 100 µM | IGROV-1 > 100 µM | M14 > 100 µM | Malme-3M > 100 µM | NCI-H23 > 100 µM | NCI-H460 > 100 µM | SF-295 > 100 µM | SN12C > 100 µM | SNB-19 > 100 µM | SNB-75 > 100 µM | SW-620 > 100 µM

CCOC(=O)c1[nH]c2c(OC)n[n+]([O-])cc2c1[N+](=O)[O-]
inactive: A549 88.5 µM | HCC 2998 10 µM | HL-60 19.7 µM | HOP-62 56.8 µM | IGROV-1 54.8 µM | M14 19.9 µM | Malme-3M 18.3 µM | NCI-H23 10 µM | NCI-H460 21.1 µM | NCI-H522 19.3 µM | SF-295 37.2 µM | SN12C 20.4 µM | SNB-19 25.6 µM | SNB-75 9.23 µM | SW-620 15.7 µM

CN(C)CC(C)(C)/C(=N\Nc1ccccc1)c1ccccc1
inactive: A549 92.5 µM | HL-60 21 µM | HOP-62 45.2 µM | IGROV-1 36.4 µM | M14 21.9 µM | Malme-3M 46.8 µM | NCI-H23 > 100 µM | NCI-H460 53.3 µM | NCI-H522 44.3 µM | SF-295 21.1 µM | SN12C 48.8 µM | SNB-19 > 100 µM | SNB-75 37.1 µM | SW-620 29.1 µM

CCCN(CCC)C(=O)c1c([N+](=O)[O-])cc(C(F)(F)F)cc1[N+](=O)[O-]
inactive: A549 32.5 µM | CAKI-1 60.7 µM | HL-60 20 µM | HOP-62 > 100 µM | IGROV-1 58.2 µM | M14 22.5 µM | NCI-H23 25.4 µM | NCI-H460 37 µM | NCI-H522 23.2 µM | SF-295 34.4 µM | SN12C 40.9 µM | SNB-19 68.4 µM | SNB-75 > 100 µM | SW-620 27.7 µM

CCc1cccc(NC(=O)c2cc(/C=C/c3ccccc3)nc(S)n2)c1
inactive: A549 > 100 µM | HCC 2998 > 100 µM | HL-60 > 100 µM | HOP-62 > 100 µM | IGROV-1 > 100 µM | M14 > 100 µM | Malme-3M > 100 µM | NCI-H23 > 100 µM | NCI-H460 > 100 µM | NCI-H522 > 100 µM | SF-295 > 100 µM | SN12C > 100 µM | SNB-19 > 100 µM | SNB-75 > 100 µM | SW-620 > 100 µM

O=C1[C@@H]2C(c3cccc([N+](=O)[O-])c3)=NO[C@@H]2C(=O)N1c1ccc(Cc2ccc(N3C(=O)[C@H]4C(c5cccc([N+](=O)[O-])c5)=NO[C@H]4C3=O)cc2)cc1
inactive: CAKI-1 > 100 µM | HOP-62 > 100 µM | IGROV-1 > 100 µM | M14 > 100 µM | Malme-3M > 100 µM | NCI-H460 > 100 µM | NCI-H522 > 100 µM | SN12C > 100 µM | SNB-75 > 100 µM | SW-620 > 100 µM

COc1ccc(C2=NC(CO)[C@H](c3ccccc3)O2)cc1OC (some centres not stated)
inactive: A549 > 100 µM | CAKI-1 > 100 µM | HCC 2998 > 100 µM | HL-60 > 100 µM | HOP-62 > 100 µM | IGROV-1 > 100 µM | M14 > 100 µM | Malme-3M > 100 µM | NCI-H460 > 100 µM | NCI-H522 > 100 µM | SF-295 > 100 µM | SN12C > 100 µM | SNB-19 > 100 µM | SNB-75 > 100 µM | SW-620 > 100 µM
